Results published in US12364702B2, “Highly active sting protein agonist compound” (ADLAI NORTYE BIOPHARMA CO., LTD., priority 2018, dated 2025).

Experiments:
Assay type in all cases: cell-based
STING WT variant [1] = biological target: T1, STING WT variant (Homo sapiens, UniProt Q86WV6); assay: SEAP reporter assay in HEK-Blue ISG KO-STING cells transfected with STING WT variant (Method 2); parameters: key: ratio of compound SEAP signal to 0.5% DMSO; conditions: 1 ng STING vector (WT variant), compound 2.5 uM, 24 h, SEAP signal vs 0.5% DMSO
T1 construct: host or cells: HEK-Blue ISG KO-STING cells (Invivogen, hkb-kostg)
Description: (§1) Activation of STING can be determined using a SEAP reporter assay in HEK-Blue™ ISG KO-STING cells (Invivogen, cat #hkb-kostg) transfected with plasmids expressing STING variants (WT & HAQ) (referred to WO2017/175147A1). STING variants (WT & HAQ) vector were constructed based on STING-232H vector (Origene, RC208418). GFP vector (VT2069) was bought from Youbio. The detailed protocol as follows: HEK-Blue™ ISG KO-STING cells were harvest and seeding into 96 well plate and the final cell number was 0.8×10^5 cells/well. Transfections were prepared using Lipofectamine 2000 (Invitrogen, Cat #11668-027) following the manufacturer's instructions (Lipo2000/DNA=1/10), 20 ul of transfection suspension containing 1 ng (WT variant) or 0.0625 ng (HAQ variant) STING vector was added to cell culture plate and incubated at 37° C., 5% CO2 for 24 hours. After 24 hours incubation, compounds were added at proper concentration, the final DMSO concentration was 0.5%. After 24 h incubation, the supernatant was collected to detect SEAP signal using Great EscAPe SEAP chemiluminescence KIT (Clontech, cat #631738) and cells were collected to detect cell viability using CellTiter-Glo Luminescent Cell Viability Assay (Promega, cat #G7573) following the manufacturer's instructions. The data were described by the ratio of the stimulating signal of compounds to 0.5% DMSO.

STING HAQ variant [2] = biological target: T2, STING HAQ variant (Homo sapiens, UniProt Q86WV6, G230A/R293Q/R71H); assay: SEAP reporter assay in HEK-Blue ISG KO-STING cells transfected with STING HAQ variant (Method 2); parameters: key: ratio of compound SEAP signal to 0.5% DMSO; conditions: 0.0625 ng STING vector (HAQ variant), compound 5 uM, 24 h, SEAP signal vs 0.5% DMSO
T2 construct: host or cells: HEK-Blue ISG KO-STING cells (Invivogen, hkb-kostg)
Description: as §1

STING = STING (Homo sapiens, UniProt Q86WV6); assay: IFN-β secretion from THP1 by STING activation (hIFNβ ELISA); conditions: THP1 cells, 24 h incubation, IFN-β in supernatant, top dose set according to solubility; for EC50: read-out: hIFNβ ELISA (EC50)
Procedure, shortened: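 THP1 cells (2×10^6 cells/ml) exposed 24 h at 37° C, 5% CO2 to 8-point, 3-fold compound dilutions, 0.2% DMSO final, top dose set by solubility. Secreted IFN-β in supernatant measured by human IFNβ ELISA; EC50 from curve fitting.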

STING WT variant [3] = biological target: T1, STING WT variant; assay: SEAP reporter assay in HEK-Blue ISG KO-STING cells transfected with STING WT variant (Method 1); conditions: compound 7.8 uM, 24 h, SEAP signal vs 0.5% DMSO
Procedure, shortened: (§2)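 HEK-Blue ISG KO-STING cells transfected with 1 ng STING variant plasmid for 24 h at 37 °C, then compound-treated 24 h (0.5% DMSO final). SEAP chemiluminescence read in supernatant; viability by CellTiter-Glo. Values are compound signal relative to 0.5% DMSO.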

STING HAQ variant [4] = biological target: T2, STING HAQ variant; assay: SEAP reporter assay in HEK-Blue ISG KO-STING cells transfected with STING HAQ variant (Method 1); conditions: compound 7.8 uM, 24 h, SEAP signal vs 0.5% DMSO
Procedure, shortened: as §2

Sequence of STING (Q86WV6 whole entry): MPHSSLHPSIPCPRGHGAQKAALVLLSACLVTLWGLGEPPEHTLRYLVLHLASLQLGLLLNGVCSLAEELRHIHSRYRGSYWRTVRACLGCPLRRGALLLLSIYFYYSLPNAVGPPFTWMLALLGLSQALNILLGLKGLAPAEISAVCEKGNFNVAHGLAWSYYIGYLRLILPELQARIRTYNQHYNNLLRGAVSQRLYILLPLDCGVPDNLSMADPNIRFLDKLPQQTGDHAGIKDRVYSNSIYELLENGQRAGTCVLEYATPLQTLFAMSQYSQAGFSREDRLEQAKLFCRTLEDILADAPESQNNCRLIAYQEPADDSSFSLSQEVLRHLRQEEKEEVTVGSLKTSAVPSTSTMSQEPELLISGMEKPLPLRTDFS
T2 sequence (Q86WV6 whole entry R71H/G230A/R293Q): as the sequence (Q86WV6 whole entry) above, with R71H, G230A, R293Q counted along it

Row | Compound | Fold change related to DMSO control WT (STING WT variant [1]) | Fold change related to DMSO control HAQ (STING HAQ variant [2]) | EC50 (STING) | hIFNβ ELISA (EC50, μM) (STING) | Fold change related to DMSO control WT (STING WT variant [3]) | Fold change related to DMSO control HAQ (STING HAQ variant [4])
1 | CCn1nc(C)cc1C(=O)Nc1nc2cc(C(N)=O)cc(OCCCN=C(N(C)C)N(C)C)c2n1CCC[C@H]1COc2cc(C(N)=O)cc3nc(NC(=O)c4cc(C)nn4CC)n1c23 [Example 56, (S)-3-(3-(7-(3-((bis(dimethylamino)methylene)amino)propoxy)-5-carbamoyl-2-(1-ethyl-3-methyl-1H-pyrazole-5-carboxamido)-1H-benzo[d]imidazol-1-yl)propyl)-2-(1-ethyl-3-methyl-1H-pyrazole-5-carboxamido)-3,4-dihydro-5-oxa-1,2a-diazaacenaphthylene-7-carboxamide] | 6.76 | 10.61 | 17300 nM | – | – | –
2 | CCn1nc(C)cc1C(=O)Nc1nc2cc(C#N)cc(OCCCNC(=O)CN3CCOCC3)c2n1CCC[C@H]1COc2cc(C#N)cc3nc(NC(=O)c4cc(C)nn4CC)n1c23 [Example 48, (S)—N-(5-cyano-1-(3-(7-cyano-2-(1-ethyl-3-methyl-1H-pyrazole-5-carboxamido)-3,4-dihydro-5-oxa-1,2a-diazaacenaphthylen-3-yl)propyl)-7-(3-(2-morpholinoacetamido)propoxy)-1H-benzo[d]imidazol-2-yl)-1-ethyl-3-methyl-1H-pyrazole-5-carboxamide] | 5.70 | 7.94 | – | inactive | – | –
3 | CCn1nc(C)cc1C(=O)Nc1nc2cc(C(N)=O)cc(OCCCNC(=O)CN3CC(COC)C3)c2n1CCC[C@H]1COc2cc(C(N)=O)cc3nc(NC(=O)c4cc(C)nn4CC)n1c23 [Example 41, (S)-3-(3-(5-Carbamoyl-2-(1-ethyl-3-methyl-1H-pyrazole-5-carboxamido)-7-(3-(2-(3-(methoxymethyl)azetidin-1-yl)acetamido)propoxy)-1H-benzo[d]imidazol-1-yl)propyl)-2-(1-ethyl-3-methyl-1H-pyrazole-5-carboxamido)-3,4-dihydro-5-oxa-1,2a-diazaacenaphthylene-7-carboxamide] | 7.15 | 19.38 | 8800 nM | – | – | –
4 | CCn1nc(C)cc1C(=O)Nc1nc2cc(C(N)=O)cc(OCCCOC)c2n1CCC[C@H]1COc2cc(C(N)=O)cc3nc(NC(=O)c4cc(C)nn4CC)n1c23 [Example 1, (S)-3-(3-(5-Carbamoyl-2-(1-ethyl-3-methyl-1H-pyrazole-5-carboxamido)-7-(3-methoxypropoxy)-1H-benzo[d]imidazol-1-yl)propyl)-2-(1-ethyl-3-methyl-1H-pyrazole-5-carboxamido)-3,4-dihydro-5-oxa-1,2a-diazaacenaphthylene-7-carboxamide] | 13.65 | 24.13 | 2100 nM | – | 2.29 | 36.93
5 | CCn1nc(C)cc1C(=O)Nc1nc2cc(C(N)=O)cc(OCCCNC(=O)CN3CC(OC)C3)c2n1CCC[C@H]1COc2cc(C(N)=O)cc3nc(NC(=O)c4cc(C)nn4CC)n1c23 [Example 43, (S)-3-(3-(5-carbamoyl-2-(1-ethyl-3-methyl-1H-pyrazole-5-carboxamido)-7-(3-(2-(3-methoxyazetidin-1-yl)acetamido)propoxy)-1H-benzo[d]imidazol-1-yl)propyl)-2-(1-ethyl-3-methyl-1H-pyrazole-5-carboxamido)-3,4-dihydro-5-oxa-1,2a-diazaacenaphthylene-7-carboxamide] | 7.12 | 19.89 | 4600 nM | – | – | –

Continued by falling EC50 (STING), values first:

Row | Fold change related to DMSO control WT (STING WT variant [1]) | Fold change related to DMSO control HAQ (STING HAQ variant [2]) | EC50 (STING) | hIFNβ ELISA (EC50, μM) (STING) | Fold change related to DMSO control WT (STING WT variant [3]) | Fold change related to DMSO control HAQ (STING HAQ variant [4]) | Compound
6 | 8.92 | 32.38 | 1600 nM | – | – | – | CCn1nc(C)cc1C(=O)Nc1nc2cc(C(N)=O)cc(OCCCOC)c2n1CCC[C@H]1COc2cc(C(N)=O)cc3nc(NC(=O)c4c(F)c(C)nn4CC)n1c23 [Example 50, (S)-3-(3-(5-carbamoyl-2-(1-ethyl-3-methyl-1H-pyrazole-5-carboxamido)-7-(3-methoxypropoxy)-1H-benzo[d]imidazol-1-yl)propyl)-2-(1-ethyl-4-fluoro-3-methyl-1H-pyrazole-5-carboxamido)-3,4-dihydro-5-oxa-1,2a-diazaacenaphthylene-7-carboxamide]
7 | 10.85 | 17.39 | 1200 nM | – | – | – | CCn1nc(C)cc1C(=O)Nc1nc2cc(C(N)=O)cc(OCCCNC(=O)CN3CCOCC3)c2n1CCC[C@H]1COc2cc(C(N)=O)cc3nc(NC(=O)c4c(F)c(C)nn4CC)n1c23 [Example 53, (S)-3-(3-(5-carbamoyl-2-(1-ethyl-3-methyl-1H-pyrazole-5-carboxamido)-7-(3-(2-morpholinoacetamido)propoxy)-1H-benzo[d]imidazol-1-yl)propyl)-2-(1-ethyl-4-fluoro-3-methyl-1H-pyrazole-5-carboxamido)-3,4-dihydro-5-oxa-1,2a-diazaacenaphthylene-7-carboxamide]
8 | 11.17 | 27.58 | 500 nM | – | – | – | CCn1nc(C)c(F)c1C(=O)Nc1nc2cc(C(N)=O)cc(OCCCOC)c2n1CCC[C@H]1COc2cc(C(N)=O)cc3nc(NC(=O)c4c(F)c(C)nn4CC)n1c23 [Example 49, (S)-3-(3-(5-carbamoyl-2-(1-ethyl-4-fluoro-3-methyl-1H-pyrazole-5-carboxamido)-7-(3-methoxypropoxy)-1H-benzo[d]imidazol-1-yl)propyl)-2-(1-ethyl-4-fluoro-3-methyl-1H-pyrazole-5-carboxamido)-3,4-dihydro-5-oxa-1,2a-diazaacenaphthylene-7-carboxamide]
